{"source": "patent US20180289637A1", "about": "“SUBSTITUTED CYCLOHEXANONES” (CLEXIO BIOSCIENCES LTD., priority 2016, published 2018)", "key": {"[1]": {"test": "Oral Single Dose PK Study in Rats", "experimental": "Male SD rats, 3 per timepoint, alternative timepoints, were used. […] Plasma was sampled at 10 min, 30 min, 1 h, 2 h, 3 h, 4 h, 7 h, 12 h, 24 h, and 30 h. The PK of the parent compound (deuterated and non-deuterated), as well as norketamine (deuterated and non-deuterated), 6-OH-norketamine (deuterated and non-deuterated), and dehydronorketamine (deuterated and non-deuterated) were analyzed."}, "[2]": {"system": "C57Bl/6 strain mice", "test": "Tail Suspension Test (mice), Example 13", "settings": "120 mg/kg oral gavage"}, "[3]": {"system": "SD male rats", "test": "Forced Swim Test (rats), Example 12"}, "[4]": {"system": "SD male rats", "test": "Forced Swim Test (rats), Example 14", "assay_type": "in vivo", "experimental": "The compounds were prepared by a chemist and coded, so the researcher was blinded to the treatment."}, "[5]": {"test": "In Vitro Liver Microsomal Stability Assay", "settings": "1 μM, 0.5 mg per mL liver microsomal protein, about 37° C.", "description": "Test articles were added for a final assay concentration of 1 μM and incubated at about 37° C. Reactions were started by addition of the cofactor, and were stopped at four designated time points (0, 15, 30 and 60 min) by the addition of an equal volume of stop reagent (e.g., acetonitrile containing an internal standard, 0.2 mL). Samples were then centrifuged at 920×g centrifugal force for 10 min at 10° C. to precipitate the proteins. Supernatants were analysed by LC/MS/MS."}, "[6]": {"test": "In vitro metabolism in human liver microsomes", "settings": "30 min, 10 μM, listed as d2 S-ketamine", "experimental": "(§1) Incubations were initiated by the addition of nicotinamine adenine dinucleotide phosphate (NADPH, 1 mM) and terminated by the addition of methanol. Samples were vortex mixed, stored on ice, and the samples were centrifuged at 1400×g for 5 minutes. Supernatants were removed from the microsome pellets and stored in new tubes at approximately −20° C. until analysis.\n(§2) Metabolites generated in microsome incubation samples were characterized by LC-MS/MS using a LTQ Orbitrap XL with electrospray ionization in positive ion mode. Semi-quantitation of the metabolites present in the samples was based on LC MS peak areas of the putative metabolites."}, "[7]": {"test": "In vitro metabolism in rat liver microsomes", "settings": "15 min, 10 μM, listed as d2 S-ketamine", "experimental": "as §1, §2"}, "[8]": {"system": "NMDA receptor", "settings": "inhibition of MK-801 binding; cited from earlier work"}, "[9]": {"settings": "in vivo; cited from earlier work"}, "[10]": {"test": "Stability of alpha-d2-(R/S)-ketamine in phosphate-buffered saline at various pH levels", "assay_type": "physicochemical", "experimental": "Incubations of (d2) (R/S)-ketamine (e.g., 1 μM) with PBS (pH 2.0, 7.4 and 8.4) were carried out using a Tecan Liquid Handling System (Tecan), or equivalent, at 37±1° C. in 0.2-mL incubation mixtures (final volume) containing PBS, at the final concentrations indicated in a 96-well plate format. The test article was added to the incubation mixtures in water. […] Incubations were carried out in triplicate with an exception for zero-time samples (which were incubated in quadruplicate). The samples were centrifuged (e.g., 920×g for 10 min at 10° C.) and the supernatant fractions analyzed by LC-MS/MS. Non-deuterated (d0) (R/S)-ketamine was used as an internal standard. The amount of unchanged test article and formation of non-deuterated (d0) (R/S)-ketamine was monitored based on peak area ratio of the analyte/internal standard."}, "[11]": {"settings": "male, SD, rat, plasma, po, 15 mg/kg"}, "[12]": {"settings": "male, SD, rat, plasma, po, 15 mg/kg, AUC0-t of Esketamine (deuterated and non-deuterated), 15 mg/kg p.o., rats"}, "[13]": {"settings": "male, SD, rat, plasma, po, 15 mg/kg, AUC0-t, 15 mg/kg p.o., male SD rats"}, "[14]": {"settings": "male, SD, rat, plasma, po, 60 mg/kg"}, "[15]": {"settings": "male, SD, rat, plasma, po, 60 mg/kg, AUC0-t of Esketamine (deuterated and non-deuterated), 60 mg/kg p.o., rats"}, "[16]": {"settings": "male, SD, rat, plasma, po, 60 mg/kg, AUC0-t, 60 mg/kg p.o., male SD rats"}}, "data": [{"smiles": "[2H]C1([2H])CCC[C@](NC)(c2ccccc2Cl)C1=O", "note": "[Example 1, (2S)-2-(2-chlorophenyl)-6,6-dideuterio-2-[deuterio(methyl)amino]cyclohexanone, deuterium chloride]", "values": [{"measurement": "6-OH norketamine levels (in words)", "setting": "[1]; 15 and 60 mg/kg p.o., rats", "result": "lower"}, {"measurement": "Dehydronorketamine as metabolite (in words)", "setting": "[1]; 15 and 60 mg/kg p.o., rats", "result": "minor metabolite"}, {"measurement": "Norketamine levels as compared to esketamine (in words)", "setting": "[1]; 15 and 60 mg/kg p.o., rats", "result": "higher"}, {"measurement": "Cmax", "setting": "[1]; [11]", "result": 136, "unit": "ng/mL"}, {"measurement": "AUC(0-t)", "setting": "[1]; [12]", "result": 114, "unit": "ng·h/mL"}, {"measurement": "AUC(0-t)", "setting": "[1]; [13]", "result": 114, "unit": "ng·h/mL"}, {"measurement": "Cmax", "setting": "[1]; [14]", "result": 163, "unit": "ng/mL"}, {"measurement": "AUC(0-t)", "setting": "[1]; [15]", "result": 268, "unit": "ng·h/mL"}, {"measurement": "AUC(0-t)", "setting": "[1]; [16]", "result": 268, "unit": "ng·h/mL"}, {"measurement": "plasma exposure to the parent compound (in words)", "setting": "[1]; single oral administration of 15 or 60 mg/kg, male SD rats, S-ketamine D2 vs S-ketamine", "result": "essentially unchanged"}, {"measurement": "adverse clinical symptoms", "setting": "[2]", "result": "adverse clinical symptoms of vocalization, ataxia and drowsiness"}, {"measurement": "reduction in immobility time", "setting": "[3]; 120 mg/kg p.o., 75-90 min after the treatment", "result": "~25", "unit": "%"}, {"measurement": "antidepressant-like effect on immobility time (in words)", "setting": "[3]; 60 or 120 mg/kg p.o., 75-90 min after the treatment", "result": "dose-response trend"}, {"measurement": "effect at 30 mg/kg (in words)", "setting": "[4]; 30 min before the test", "result": "less pronounced compared to the lower dose"}, {"measurement": "increase in degradation half-life as compared to non-isotopically enriched ketamine", "setting": "[5]", "result": 18, "unit": "%"}, {"measurement": "% Peak Area, component S-ketamine (parent remaining)", "setting": "[6]", "result": 33.6, "unit": "%"}, {"measurement": "% Peak Area, component S-ketamine (parent remaining)", "setting": "[7]", "result": 2.6, "unit": "%"}]}, {"smiles": "N[C@]1(c2ccccc2Cl)CCCCC1=O", "note": "[(S)-norketamine]", "values": [{"measurement": "affinity for the NMDA receptor relative to the (R)-enantiomer", "setting": "[8]", "result": 8, "unit": "times"}]}, {"smiles": "CN[C@]1(c2ccccc2Cl)CCCCC1=O", "note": "[Esketamine, S-ketamine, reference compound]", "values": [{"measurement": "Dehydronorketamine as metabolite (in words)", "setting": "[1]; 15 and 60 mg/kg p.o., rats", "result": "minor metabolite"}, {"measurement": "Cmax", "setting": "[1]; [11]", "result": 200, "unit": "ng/mL"}, {"measurement": "Tmax", "setting": "[1]; [11]", "result": 0.5, "unit": "h"}, {"measurement": "AUC(0-t)", "setting": "[1]; [12]", "result": 183, "unit": "ng·h/mL"}, {"measurement": "AUC(0-t)", "setting": "[1]; [13]", "result": 183, "unit": "ng·h/mL"}, {"measurement": "Cmax", "setting": "[1]; [14]", "result": 165, "unit": "ng/mL"}, {"measurement": "AUC(0-t)", "setting": "[1]; [15]", "result": 498, "unit": "ng·h/mL"}, {"measurement": "AUC(0-t)", "setting": "[1]; male, SD, rat, plasma, po, 60 mg/kg, AUC0-t of Esketamine, value in brackets (24 hr time point excluded), 60 mg/kg p.o., rats", "result": 311, "unit": "ng·h/mL"}, {"measurement": "AUC(0-t)", "setting": "[1]; [16]", "result": 498, "unit": "ng·h/mL"}, {"measurement": "AUC(0-t)", "setting": "[1]; male, SD, rat, plasma, po, 60 mg/kg, AUC0-t, 24 hr time point excluded, 60 mg/kg p.o., 24 hr time point excluded (7 hr was BLQ)", "result": 311, "unit": "ng·h/mL"}, {"measurement": "adverse clinical symptoms", "setting": "[2]", "result": "adverse clinical symptoms of vocalization, ataxia and drowsiness"}, {"measurement": "mortality", "setting": "[2]; 20 minutes after the oral gavage", "result": "One of the animals was found dead"}, {"measurement": "reduction in immobility time", "setting": "[4]; 30 mg/kg, 30 min before the test (route printed as orally, i.p. in table)", "result": 60, "unit": "%"}]}, {"smiles": "NC1(c2ccccc2Cl)CCCCC1=O", "note": "(racemic) [norketamine, N-desmethylketamine]", "values": [{"measurement": "elimination half-life", "setting": "[9]", "result": 4, "unit": "h"}]}, {"smiles": "[2H]C1([2H])CCCC(NC)(c2ccccc2Cl)C1=O", "note": "(racemic) [d2-ketamine, alpha-d2-(R/S)-ketamine]", "values": [{"measurement": "Mean percent remaining (0 min)", "setting": "[10]; PBS pH 2.0, 37±1° C.", "result": 100, "unit": "%"}, {"measurement": "Mean percent remaining (30 min)", "setting": "[10]; PBS pH 2.0, 37±1° C.", "result": 94.6, "unit": "%"}, {"measurement": "Mean percent remaining (60 min)", "setting": "[10]; PBS pH 2.0, 37±1° C.", "result": 98.8, "unit": "%"}, {"measurement": "Mean percent remaining (120 min)", "setting": "[10]; PBS pH 2.0, 37±1° C.", "result": 93.9, "unit": "%"}, {"measurement": "Mean percent remaining (0 min)", "setting": "[10]; PBS pH 7.4, 37±1° C.", "result": 100, "unit": "%"}, {"measurement": "Mean percent remaining (30 min)", "setting": "[10]; PBS pH 7.4, 37±1° C.", "result": 98.3, "unit": "%"}, {"measurement": "Mean percent remaining (60 min)", "setting": "[10]; PBS pH 7.4, 37±1° C.", "result": 99.0, "unit": "%"}, {"measurement": "Mean percent remaining (120 min)", "setting": "[10]; PBS pH 7.4, 37±1° C.", "result": 96.0, "unit": "%"}, {"measurement": "Mean percent remaining (0 min)", "setting": "[10]; PBS pH 8.4, 37±1° C.", "result": 100, "unit": "%"}, {"measurement": "Mean percent remaining (30 min)", "setting": "[10]; PBS pH 8.4, 37±1° C.", "result": 96.4, "unit": "%"}, {"measurement": "Mean percent remaining (60 min)", "setting": "[10]; PBS pH 8.4, 37±1° C.", "result": 99.6, "unit": "%"}, {"measurement": "Mean percent remaining (120 min)", "setting": "[10]; PBS pH 8.4, 37±1° C.", "result": 95.1, "unit": "%"}]}, {"smiles": "CNC1(c2ccccc2Cl)CCCCC1=O", "note": "(racemic) [Ketamine, ketamine, reference compound]", "values": [{"measurement": "reduction in immobility time by manual counting", "setting": "[3]; 30 mg/kg i.p., 30 min before test", "result": 54, "unit": "%"}, {"measurement": "elimination half-life", "setting": "[9]", "result": "2 to 3", "unit": "h"}]}]}
